Consider four compounds from patent US8349835B2, “Aromatic ring fused triazine derivatives and uses thereof” (Shenyang Pharmaceutical University, priority 2008, dated 2013).

Data set [1] has as its system Microvascular Endothelial Cells (MVEC). Briefly: MTT growth inhibition of MVEC. Format: cell-based. The conditions noted are these: Endothelial cell, 96 h, 4 days culture with drug, read-out: IG50 on inhibiting growth of MVEC. The method in brief: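 MVEC were seeded at 2×10^4 cells/mL in DMEM with 10% FBS and allowed to attach for 24 h, then treated with compound at final concentrations of 5–80 μmol/L (triplicates) for 4 days at 37 °C. MTT (4 h) absorbance at 570 nm gave % growth inhibition relative to untreated cells.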

In another data set the target is VEGFR-2 (Homo sapiens, UniProt P35968). Briefly: VEGFR-2 inhibition rate test (kinase assay kit, colorimetric ELISA). The following applies: concentration not given. For orientation: ELISA stands for enzyme-linked immunosorbent assay.
The subject of data set [2] is Human breast carcinoma cells (MDA-MB231). Briefly: MTT growth inhibition of MDA-MB231. Format: cell-based. The following applies: MDA-MB-231, 96 h, 4 days, read-out: IG50 MDA-MB231. On the procedure: (§1) In Vitro Anti-Tumor Activity Test
(§2) Put cell suspension into centrifugal tubes with a pipette under sterile conditions, then the cell suspension was centrifuged for 3 minutes at 1300 rpm. Discarded the supernatant lightly and added fresh culture medium. Mixed the cells by pipetting, then transferred the cells into culture flasks, and put them into the CO2 incubator. Changed the culture medium once after 24 hours.
(§3) Human prostate cancer cells (DU145, PC-3) were cultured in a medium containing RPMI1640 basic medium supplemented with 10% heat-inactivated FBS, 100 IU/mL penicillin, 100 μg/mL streptomycin and 1 mmol/L L-glutamine. Human breast carcinoma cells (T47D, MDA-MB231) were cultured in a medium containing RPM11640 basic medium supplemented with 10% heat-inactivated FBS, 5 μg/mL insulin, 100 IU/mL penicillin, 100 μg/mL streptomycin and 1 mmol/L L-glutamine. Human breast carcinoma cells (MCF-7) were cultured in a medium containing DMEM basic medium supplemented with 10% heat-inactivated FBS, 5 μg/mL insulin, 100 IU/mL penicillin, 100 μg/mL streptomycin and […]. Murine Lewis lung cancer cells (LL/2), murine melanoma cells (B16FD) and Microvascular Endothelial Cells (MVEC) were cultured in a medium containing DMEM basic medium supplemented with 10% heat-inactivated FBS, 4.5 g/L glucose, 1.5 g/L NaHCO3, 100 IU/mL penicillin, 100 μg/mL streptomycin and 4 mmol/L L-glutamine. All these cell lines were incubated at 37° C. biochemical incubator with 5% CO2 saturated humidity.
(§4) After resuscitation, the cells were passed for 2-3 generations till they became stable, then they were used for the experiments. Each passage was based on the standard that all cells were spread over the bottoms of culture flasks.
(§5) Cells were digested off from the bottoms of culture flasks with trypsin (0.25%). The cell dissociation buffer was transferred into centrifuge tubes, added medium to stop the digestion, and centrifuged for 3 minutes at 1300 rpm. […]
(§6) Added 50 μL MTT liquids (2 mg/mL) into each well, put the culture plates into the biochemical incubator for 4 h, discarded MTT liquids (TCC), added 200 μL DMSO, then oscillated for 10 minutes on the magnetic oscillator to make sure that the survived cells and the reaction product of MTT were fully dissolved. Detected and recorded the absorbance (OD) values of each well at the wavelength of 570 nm using the microplate reader. […] The cell growth inhibition rates under each drug concentration were calculated by the following formula. […] Inhibition rate of growth(%)=(1−The absorbance(OD)of cells with tested drugs/The absorbance(OD)of the blank control group)×100%
(§7) The absorbance (OD) of cells with tested drugs: OD value is measured with the test drugs.
(§8) The absorbance (OD) of the blank control group: OD value is measured without the test drugs. […]

In data set [3] the test system is Murine Lewis lung cancer cells (LL/2). The data set can be described thus: MTT growth inhibition of LL/2. In kind it is cell-based. The conditions noted are these: Mus musculus, Lewis lung carcinoma, 96 h; LL/2, MTT, 4 days; read-out: IG50 LL/2. On the procedure:
as §1, §2, §3, §4
(§9) Cells were digested off from the bottoms of culture flasks with trypsin (0.25%). The cell dissociation buffer was transferred into centrifuge tubes, added medium to stop the digestion, and centrifuged for 3 minutes at 1300 rpm. Discarded the supernatant lightly and added fresh culture medium (5 mL). Mixed the cells by pipetting, then added 10 μL of the cell suspension into the cell counting plate, and adjusted the cell concentration to 2×10^4 cells/mL. Added 100 μL of the cell suspension to all wells on the 96 well plates, except A1 well as the blank control. Put the plates into the biochemical incubator for 24 hours and to make sure the cells grew along the walls. […]
as §6, §7, §8

Data set [4] relates to Human Umbilical Vein Endothelial Cells (HUVEC). Briefly: MTT growth inhibition of HUVEC. Format: cell-based. The following applies: 96 h, 4 days, read-out: IG50 HUVEC. On the procedure:
as §1, §2, §4
Cells were digested off from the bottoms of culture flasks with trypsin (0.25%). The cell dissociation buffer was transferred into centrifuge tubes, added medium to stop the digestion, and centrifuged for 3 minutes at 1300 rpm. Discarded the supernatant lightly and added fresh culture medium (5 mL). Mixed the cells by pipetting, then added 10 μL of the cell suspension into the cell counting plate, and adjusted the cell concentration to 2×10^4 cells/mL. Added 100 μL of the cell suspension to all wells on the 96 well plates, except A1 well as the blank control. Put the plates into the biochemical incubator for 24 hours and to make sure the cells grew along the walls.
The drugs were dissolved in 80 mmol/L DMSO first, and then diluted the drugs with ethanol to 8 mmol/L. The solution was further diluted with the culture medium to different concentrations as 160 μmol/L, 120 μmol/L, 80 μmol/L, 40 μmol/L, 20 μmol/L and 10 μmol/L. Added 100 μL of the drug solution to each well on the 96 well plates. Therefore, the final concentrations of the drugs that were added to the cells were 80 μmol/L, 40 μmol/L, 20 μmol/L, 10 μmol/L and 5 μmol/L, and each concentration were repeated in three parallel wells. Put the culture plates into the biochemical incubator to culture continuously for 4 days.
Added 50 μL MTT liquids (2 mg/mL) into each well, put the culture plates into the biochemical incubator for 4 h, discarded MTT liquids (TCC), added 200 μL DMSO, then oscillated for 10 minutes on the magnetic oscillator to make sure that the survived cells and the reaction product of MTT were fully dissolved. Detected and recorded the absorbance (OD) values of each well at the wavelength of 570 nm using the microplate reader. The OD values of cells without tested drugs were used as control. The cell growth inhibition rates under each drug concentration were calculated by the following formula. […] Inhibition rate of growth(%)=(1−The absorbance(OD)of cells with tested drugs/The absorbance(OD)of the blank control group)×100%
as §7
The absorbance (OD) of the blank control group: OD value is measured without the test drugs.
8) The Growth Inhibition Effect of Compounds on Human Breast Carcinoma Cells (T47D, MDA-MB231, MCF-7), Human Prostate Cancer (DUI45, PC-3), Murine Lewis Lung Cancer Cells (LL/2), Murine Melanoma Cells(B16F0) and Human Umbilical Vein Endothelial Cells (HUVEC) (Table 2).

The subject of data set [5] is murine melanoma cells (B16F0). Briefly: MTT growth inhibition of B16F0. Format: cell-based. The conditions noted are these: Mus musculus, 96 h, 4 days, read-out: IG50 B16F0. On the procedure:
as §1, §2, §3, §4, §9, §6, §7, §8

A further data set relates to Rat aortic ring. Briefly: Rat Aortic Ring Assay. Format: cell-based. The conditions noted are these: observed on the sixth day. The method in brief: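 1 mm abdominal aortic rings from 6-week-old SD animals embedded in Matrigel, cultured in DMEM/10% FBS with compound at various concentrations (≥3 wells), medium and compound renewed day 3. Microvessel area imaged on day 6 (×100, 3 random rings); inhibition rate scored: ⋆<30-60%, ⋆⋆60-90%, ⋆⋆⋆>90%.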

Data set [6] concerns Human breast carcinoma cells (MCF-7). Briefly: MTT growth inhibition of MCF-7. Format: cell-based. The following applies: MCF7, 96 h, MCF-7, MTT, 4 days, read-out: IG50 MCF-7. On the procedure: as §1, §2, §3, §4, §5, §6, §7, §8
The subject of data set [7] is Human prostate cancer cells (PC-3). Briefly: MTT growth inhibition of PC-3. In kind it is cell-based. The conditions noted are these: 96 h, PC-3, MTT, 4 days, read-out: IG50 PC-3. On the procedure: as §1, §2, §3, §4, §9, §6, §7, §8
The next data set can be described thus: in vivo. The following applies: both sexes, mouse, intraperitoneal, Kunming mice, peritoneal injection, single administration, observed for one week. On the procedure:
9) Acute Toxicity Testing
Animals: healthy mice of Kunming species, female and male each account for 50%, and the weights range from 18 to 22 g. All the mice were obtained from the laboratory animal center of Shenyang Pharmaceutical University. Certificate number: Liao Shi He Zi No. 033
Medicine preparation: drugs were added in 0.2% Polysorbate 80 (Tween-80) to make suspension. The dosage of tested compounds was indicated with mg/kg.
Test period and Observed index: observed for one week after the administration. The toxic reaction information of the mice was recorded everyday during the observation period. The death of mice was regarded as the principal index. Half lethal doses (LD50, mg/kg) of the compounds one week after the drug administration were calculated according to the method of weighted regression.

The subject of data set [8] is Human breast carcinoma cells (T47D). Briefly: MTT growth inhibition of T47D. Format: cell-based. The conditions noted are these: 96 h, 4 days, read-out: IG50 T47D. On the procedure:
as §1, §2, §3, §4, §9, §6, §7, §8

The subject of data set [9] is Human prostate cancer cells (DU145). The data set can be described thus: MTT growth inhibition of DU145. Format: cell-based. The following applies: DU-145, 96 h, 4 days, read-out: IG50 DU145. On the procedure: as §1, §2, §3, §4, §9, §6, §7, §8
Data set [10] deals with chorioallantoic membrane vessels. Briefly: Activity test by chick chorioallantoic membrane method. The following applies: 5 uL medicine on cellulose membrane, chick embryo, 2 days. In kind it is in vivo. The method in brief:
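A sterile 0.5×0.5 cm cellulose membrane carrying 5 uL of test agent is placed on a low-vessel region of the exposed chick chorioallantoic membrane. The embryos are then incubated 2 days. The avascular area is measured and photographed.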

VEGFR-2, sequence (P35968 20-1356): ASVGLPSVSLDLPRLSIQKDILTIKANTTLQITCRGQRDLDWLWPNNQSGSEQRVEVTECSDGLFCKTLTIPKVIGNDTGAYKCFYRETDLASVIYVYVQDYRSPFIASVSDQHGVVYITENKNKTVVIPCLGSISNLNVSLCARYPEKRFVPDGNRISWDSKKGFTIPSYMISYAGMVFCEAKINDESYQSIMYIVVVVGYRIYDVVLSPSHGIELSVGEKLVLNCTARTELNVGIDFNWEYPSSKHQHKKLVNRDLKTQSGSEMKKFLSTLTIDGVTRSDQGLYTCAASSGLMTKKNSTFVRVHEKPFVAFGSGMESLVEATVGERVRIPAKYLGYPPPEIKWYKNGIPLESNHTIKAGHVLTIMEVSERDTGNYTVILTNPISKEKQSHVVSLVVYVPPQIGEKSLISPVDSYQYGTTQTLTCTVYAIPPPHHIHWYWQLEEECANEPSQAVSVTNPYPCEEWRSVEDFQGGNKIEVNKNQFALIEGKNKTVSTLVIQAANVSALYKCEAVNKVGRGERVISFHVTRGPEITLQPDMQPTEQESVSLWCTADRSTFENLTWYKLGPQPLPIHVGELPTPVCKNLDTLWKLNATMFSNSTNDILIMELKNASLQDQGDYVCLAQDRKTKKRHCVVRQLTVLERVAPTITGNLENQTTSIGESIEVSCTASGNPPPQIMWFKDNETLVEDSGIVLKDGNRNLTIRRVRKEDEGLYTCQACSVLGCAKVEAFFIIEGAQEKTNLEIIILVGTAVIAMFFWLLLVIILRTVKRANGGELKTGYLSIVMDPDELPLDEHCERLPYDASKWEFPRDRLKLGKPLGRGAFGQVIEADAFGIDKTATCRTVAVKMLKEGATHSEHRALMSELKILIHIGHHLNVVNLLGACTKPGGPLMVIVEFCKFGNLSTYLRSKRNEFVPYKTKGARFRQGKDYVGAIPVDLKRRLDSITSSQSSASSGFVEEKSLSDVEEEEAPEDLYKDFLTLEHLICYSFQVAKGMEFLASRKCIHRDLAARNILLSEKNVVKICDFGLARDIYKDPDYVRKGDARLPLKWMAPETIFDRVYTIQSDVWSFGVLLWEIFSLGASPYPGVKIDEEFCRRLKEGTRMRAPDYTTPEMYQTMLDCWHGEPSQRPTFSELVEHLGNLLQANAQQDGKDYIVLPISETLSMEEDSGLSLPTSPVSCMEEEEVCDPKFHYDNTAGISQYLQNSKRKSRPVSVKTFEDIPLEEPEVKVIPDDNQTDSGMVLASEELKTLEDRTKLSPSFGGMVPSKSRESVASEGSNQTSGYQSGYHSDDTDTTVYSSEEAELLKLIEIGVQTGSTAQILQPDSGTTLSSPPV
Experimental for VEGFR-2: VEGFR-2 Inhibition Rate Test
Experiments were carried out according to the Kit instruction as the follows
1) Added 10 μL 10 mM ATP to 1.25 ml 6 μM substrate peptide, and diluted the mixture to 2.5 mL with pure water to prepare the reaction solution of 2×ATP/Substrate (ATP=40 μM, Substrate=3 μm).
2) Quickly moved VGFR-2 Kinase from −80° C. to the ice to be thawed.
3) Centrifuged at 4° C. shortly, then the liquid was centrifuged to the bottoms of the containers and moved back on the ice.
5) Added 0.6 mL DTT/Kinase buffer solution to a tube containing the kinase to prepare 4× Reaction solution (Kinase=8 ng/μL).
6) Diluted 12.5 μL of selected compound by the same volume, then mixed with 12.5 μL 4× Reaction solution of Kinase, and incubated for 5 minutes at room temperature.
7) Added 25 μL 2× Reaction solution of ATP/Substrate into the above solution.
8) Incubated for 30 minutes at room temperature.
10) Added 25 μL reaction solution and 75 μL pure water to Streptavidin coated plates and incubated for 60 minutes at room temperature.
11) Diluted Phospho-Tyrosin mAb with PBS/T containing 1% BSA to one thousandth, and added 100 uL of the diluted Ab to each well.
12) Incubated for 60 minutes at room temperature.
13) Washed the plate three times with 200 μL PBS/T for each well.
Detection of Colorimetric ELISA
14) Secondary antibody was diluted with PBS/T containing 1% BSA marked by HRP (IgG of anti-rat diluted to 1/500, and IgG of anti-rabbit diluted to 1/1000).
15) Added 100 μL diluted secondary antibody to each well.
16) Incubated for 30 minutes at room temperature.
17) Washed the plate five times with 200 μL PBS/T for each well.
18) Added 100 μL TMB substrate to each well.
20) Added 100 μL Sulfuric acid solution (2N) to each well to stop the reaction, and mixed evenly.
21) Detected the absorbance at 450 nm with Microplate Reader and calculated enzyme inhibition rate.

As usually defined, the LD50 is the dose expected to kill half of the subjects tested. Higher therefore signals lower toxicity. Regarding `FC(F)(F)Oc1cccc(Nc2nnnc3ccc(Cl)nc23)c1` [Example 86, 6-chloro-4-(3-trifluoromethoxyanilino)pyrido[3,2-d][1,2,3]triazine], the IC50 turned out to be 4.28 µM in [1]; 4.71 µM in data set [2]; 4.13 µM in [3]; 2.21 µM in [4]; 4.67 µM in data set [5]; 4.55 µM in data set [6]. The IC50 in data set [7] was determined as 5.99 µM; in [8], 6.42 µM; in data set [9] it was 4.14 µM. Also, the “Kinase inhibition rate (VEGFR-2)” value on VEGFR-2 worked out at 29.93. In addition, the “Rat Aortic Ring Assay (10 ug/ml), result in words” value in the data set on Rat aortic ring is reported as “Almost complete inhibition (10 μg/mL), vascular ring was dead”. Besides, the median lethal dose (LD50) at 1 week in “in vivo” came to 292 mg/kg.

For `CCCCOc1cc2nnnc(Nc3ccc(C)cc3)c2cc1OC` [Example 27, 6-methoxy-7-n-butoxy-4-(4-methylanilino)-benzo[d][1,2,3]triazine], the IC50 in data set [1] amounted to 9.09 µM; in data set [2], 19.6 µM; in [3] it was 15.7 µM; in [4], 5.06 µM; in data set [5], 22.2 µM; in [6] it was 6.17 µM. The values for the IC50 in data set [7], in data set [8] and in [9] were 15.8 µM, 18.4 µM and 15.1 µM, respectively. The LD50 at 1 week in “in vivo” turned out to be 733 mg/kg.

As for `FC(F)(F)c1cccc(Nc2nnnc3ccc(Cl)nc23)c1` [Example 84, 6-chloro-4-(3-trifluoromethylanilino)pyrido[3,2-d][1,2,3]triazine], the IC50 in data set [1] is 5.25 µM; in data set [2], 5.1 µM; in data set [3] it was 4.79 µM; in [4], 3.02 µM; in data set [5], 4.28 µM; in data set [6], 3.95 µM. For the same compound, the IC50 in [7] came to 6.9 µM; in data set [8], 5.87 µM; in data set [9], 5.9 µM. The “Rat Aortic Ring Assay (10 ug/ml), result in words” value in the data set with Rat aortic ring was “Almost complete inhibition (10 μg/mL), vascular ring was dead”. Also, in “in vivo”, the LD50 at 1 week stood at 424 mg/kg.

On to `Clc1ccc(Nc2nnc(Cc3ccncc3)c3ccccc23)cc1` [PTK787, Vatalanib succinate, reference compound], for which the IC50 in data set [1] is 38.1 µM; in data set [2], 24.2 µM; in data set [3], 35 µM; in data set [4], over 40 µM; in data set [5] it was 21.4 µM; in [6] it was 12.3 µM. The IC50 in data set [7] amounted to 63.7 µM; in data set [8], 36.3 µM; in data set [9], 41.3 µM. Also, the “The inhibitory effect on the growth of chorioallantoic membrane vessels” value in data set [10] is listed as “There is no vascular growth”.
